According to paper PMC3049263 (Bioorganic & medicinal chemistry, 2010):
Where two headings read alike, the source gives them in different places.

Experiments:
[1] = molecular target: gp120 (Human immunodeficiency virus type 1 group M subtype B, UniProt P35961); experiment: Isothermal titration calorimetry binding to gp120
[2] = test system: wild-type HIV-1YU2 virus; assay type: cell-based; settings: CD4-expressing Cf2Th-CCR5 target cells
[3] = test system: recombinant HIV-1YU2; assay type: cell-based; settings: CD4-deficient Cf2Th-CCR5 cells
[4] = test system: D368A mutant HIV-1YU2 envelope glycoproteins; assay type: cell-based; settings: vestibule of the Phe 43 cavity
[5] = test system: S375A mutant HIV-1YU2 envelope glycoproteins; assay type: cell-based; settings: base of the Phe 43 cavity

Compound | Inhibition of CD4-gp120 binding / viral infection (in words) [2] | gp120 binding affinity (in words) ([1]; ITC) | Enhancement of viral infectivity (in words) [3] | other results
CC1(C)CC(NC(=O)C(=O)Nc2ccc(Cl)c(F)c2)CC(C)(C)[N+]1(C)[O-] (stereo not shown) [Compound 20] |  |  |  | gp120 binding affinity (in words) [1]: reduced binding
CCN1CCCC1CNC(=O)C(=O)Nc1ccc(Cl)cc1 (stereo not shown) [Compound 42] | inhibited CD4-gp120 binding |  |  | 
CC1(C)CC(NC(=O)C(=O)Nc2ccc(Cl)c(F)c2)CC(C)(C)O1 [Compound 19] |  | reduced binding |  | 
CC1(C)CC(NC(=O)C(=O)Nc2ccc(Cl)c(F)c2)CC(C)(C)C1 [Compound 17] | failed to exhibit inhibition |  |  | 
O=C(NCC1NCCc2ccccc21)C(=O)Nc1ccc(Cl)c(F)c1 (stereo not shown) [Compound 39] |  |  | decreased enhancement of viral infectivity | 
C[C@@H]1CCC[C@H](C)N1CCNC(=O)C(=O)Nc1ccc(Cl)c(F)c1 [Compound 50] |  |  | ineffective at enhancing viral infectivity | Effect of D368A mutation on analogue binding (in words) [4]: negative effect; Effect of S375A mutation on inhibition of CD4-gp120 binding (in words) [5]: increases the ability of these analogues to inhibit CD4-gp120 binding
CCN1CCCC1CNC(=O)C(=O)Nc1ccc(Cl)c(F)c1 (stereo not shown) [Compound 43] |  | binding affinity comparable to 41 | without the accompanying enhancement of viral infectivity | 
CC(C)N1CCC(NC(=O)C(=O)Nc2ccc(Cl)c(F)c2)CC1 [Compound 11] |  | retention of binding affinity |  | 
CC1(C)C2CCC1(C)C(NC(=O)C(=O)Nc1ccc(Cl)c(F)c1)C2 (stereo not shown) [Compound 18] | failed to exhibit inhibition |  |  | 
O=C(NCC1CCCN(CCO)C1)C(=O)Nc1ccc(Cl)c(F)c1 (stereo not shown) [Compound 51] |  |  | ineffective at enhancing viral infectivity | 
CC(C)N1CCCCC1CCNC(=O)C(=O)Nc1ccc(Cl)c(F)c1 (stereo not shown) [Compound 25] | improved IC50 |  |  | 
O=C(Nc1ccc(Cl)c(F)c1)C(=O)NC1CCNC2(CCC2)C1 (stereo not shown) [Compound 49] | maintained inhibition | sub-micromolar binding affinity | activation of viral infectivity similar to 1 | Effect of D368A mutation on analogue binding (in words) [4]: negative effect; Effect of S375A mutation on inhibition of CD4-gp120 binding (in words) [5]: increases the ability of these analogues to inhibit CD4-gp120 binding
